Common to all, as to type: cell-based
Experiment [1] deals with MC3T3-E1 osteoblasts. The experiment in a line: [3H]-thymidine incorporation into DNA in wounded mineralized cell layers (in vitro fracture model). The conditions noted are these: for increase of thymidine incorporation: wounded MC3T3-E1, 24 hour treatment, FGF-2 0.2 ng/ml, TGFβ 2 ng/ml, PGE2; for change in DNA synthesis (thymidine incorporation), in words: wounded MC3T3-E1, within twenty-four hours of treatment. As to the method: (§1) Cell culture: Cloned MC3T3-E1 osteoblasts (Kodama et al., J. Cell. Physiol. 112:89-95, 1992) were maintained in alpha MEM medium (Catalog No. MT15012CV Fisher Scientific, Pittsburgh, Pa.) containing 10% fetal bovine serum (FBS), 1% antibiotic solution and 1% glutamine solution and subcultured every 3 to 4 days. The cells were subcultured by incubating with trypsin for five minutes and resuspending at a concentration of 3×10^5 cells/ml. For experiments, cells were grown in the same medium as above, using multiwell plates (35 mm for microscopy and 22 mm for thymidine uptake studies). Each well contained a round 12 mm glass cover slip. Cultures for microscopy contained a 22 mm diameter coverslip with a 12 mm coverslip on top. After three days, the cells reached confluence and differentiation medium (DM) was added. DM was alpha MEM medium containing 10% FBS, 1% antibiotic solution and 1% glutamine solution, supplemented with ascorbic acid (50 μg/ml) and β-glycerol phosphate (10 mM) to induce mineralization. The cultures were then incubated for 9 more days. Microscopic examination was done at this time, using Von Kossa stain to confirm mineralization of the cultures. A critical defect in the mineralized cell layers was created by removing the 12 mm coverslips under sterile conditions and then incubating the cultures for an additional 24 hours in DM containing 4% FBS with IGF-1 (20 ng/ml), FGF-2 (0.2 ng/ml), PDGF (3 ng/ml), TGFβ (2 ng/ml) or PGE2 (2 μg/ml). At least triplicate independent biological samples in multiple experiments were carried out for data collection.
Tritiated thymidine incorporation into DNA: At the conclusion of the 24 hour incubation, the culture medium was removed and the cells were incubated for 15 minutes at 37° C. in 1 ml PBS containing tritiated thymidine (4 μCi/ml). Following this incubation, the PBS was removed and the cells washed 3 times with ice cold trichloroacetic acid (TCA) followed by ice cold ethanol and allowed to air dry. Then 1 ml of sarkosyl lysis buffer ([…] containing 1% sarkosyl) was added to each well; all the cells were solubilized after 30 minutes. Finally, after mixing the resulting solution with a pipette, radioactivity was counted in a scintillation counter and protein content was measured. The data was calculated and expressed as disintegrations per minute per microgram protein.

The subject of experiment [2] is MC3T3-E1 cell monolayers. The experiment in a line: Cell re-growth and migration into the coverslip defect, rhodamine phalloidin microscopy. To be noted: for re-growth of cells into the defect, in words / relative migration: 24 hours after injury; for relative migration: from wound site to migrating edge. The method, then: as §1, with “([…]).” for “(2 ng/ml) or PGE2 (2 μg/ml).”
Microscopy: At the conclusion of the 24 hour incubation, the remaining 22 mm coverslip containing the regenerating area of the culture was removed. The specimen was rinsed five times in room temperature phosphate buffered saline (PBS) and fixed. Cells were visualized with the F-actin probe rhodamine phalloidin (Invitrogen, Carlsbad, Calif.). After rinsing in distilled water and air drying the samples, the coverslips were mounted on microscope slides using FLUOROMOUNT™ and the cells were examined and photographed. Photomicrographs were made on a Zeiss Axioskop epi-fluorescent microscope using a 40× objective. Migration was measured on the photomicrographs from the site of the wound to the migrating edge using a metric ruler (n=3) for each measurement.

The test system of experiment [3] is Wounded Mineralized MC3T3-E1 Cells. The experiment in a line: Total protein content of wounded mineralized cultures (Bio-Rad DC protein assay). To be noted: normalized to the control culture; 24 hours of treatment. The method, then:
as §1
Protein assay: Protein concentration was determined by Bio-Rad DC™ protein assay (Bio-Rad, Hercules, Calif.) according to the manufacturer's protocol.

The test system of experiment [4] is MC3T3-E1 cells. The experiment in a line: Cell growth on pre-treated nylon ribbons. To be noted: up to 4 days, 0.1 mg/ml fibrinogen, HAHp, 50 ng/ml FGF-2. As to the method: Growth on Nylon Ribbons: 250,000 MC3T3-E1 osteoblast cells were seeded in 12-well plates containing 1 inch by 1 inch nylon ribbons pre-treated with 0.1 mg/ml fibrinogen or 1 mg/ml HA and 3 mg/ml heparin (HAHp) with or without 50 ng/ml FGF-2. Cells were visualized under 10× objective at 1 and 4 days after seeding.

For experiment [5], the system named is MC3T3-E1 cells. Briefly: Cell proliferation on ECM protein coated wells with FGF-2, CyQuant. The conditions noted are these: wells containing ECM proteins and FGF-2. As to the method: Cell Proliferation: Five-hundred MC3T3-E1 osteoblast like cells were plated on a 96 well plate with ECM proteins coated on the bottom of the well. Sextuplet independent samples with and without FGF-2 were each plated in wells and 500 MC3T3-E1 cells were then adhered and grown for 3 days. Cell number was measured using CyQuant assay kit. Medium was changed daily

For the compound transforming growth factor β [TGFβ], in experiment [1], the “increase of thymidine incorporation” value is recorded as “more than 2 fold” and the “change in DNA synthesis (thymidine incorporation), in words” value (“change in DNA synthesis” below) is reported as “significantly enhanced”. Further, in experiment [2], the “re-growth of cells into the defect, in words” value was “showed cellular proliferation at the interface of the mature cultures and the defect”; the relative migration is 1.8±0.4 mm. For the same compound, the “Total Protein/Culture” value in experiment [3] was 1.55.

On to insulin-like growth factor-1 [IGF-1], for which, in experiment [1], the “change in DNA synthesis” value is “small and unremarkable changes”. Further, the “re-growth of cells into the defect, in words” value in experiment [2] was “little and unremarkable re-growth”. The “Total Protein/Culture” value in experiment [3] was determined as 1.19.

Take platelet-derived growth factor [PDGF]: in experiment [1], the “change in DNA synthesis” value is “small and unremarkable changes”. In addition, in experiment [2], the “re-growth of cells into the defect, in words” value was “little and unremarkable re-growth”. In experiment [3], the “Total Protein/Culture” value is given as 1.38.

In the case of fibrinogen, in experiment [4], the “cell growth on nylon ribbon, in words” value is reported as “Little or no cell proliferation”.

Consider fibronectin, for which, in experiment [5], the “MC3T3-E1 cell proliferation, in words” value is recorded as “significantly increased”.

For `CCCCC[C@H](O)/C=C/[C@H]1[C@H](O)CC(=O)[C@@H]1C/C=C\CCCC(=O)O` [PGE2, prostaglandin E2, reference compound], in experiment [1], the “increase of thymidine incorporation” value was above 3.3 fold and the “change in DNA synthesis” value is “significantly enhanced”. Moreover, in experiment [2], the “re-growth of cells into the defect, in words” value is “showed cellular proliferation at the interface of the mature cultures and the defect”; the relative migration stood at 3.2±0.2 mm. Moreover, the “pattern of re-growth and cell morphology in the defect, in words” value in experiment [2] (FGF-2 0.2 ng/ml, PGE2 10 μg/ml) is “more linear pattern and formed multiple elongated pseudopodia”. In addition, the “Total Protein/Culture” value in experiment [3] was found to be 1.51.

The values above are taken from patent US20100055078A1, “METHODS OF MAKING A TRANSPLANTABLE BONE REPAIR SYSTEM USING MULTIPOTENT STEM CELLS” (The Government of the U.S.A, as represented by the …, priority 2008, published 2010).
